Reference: ChEMBL document CHEMBL5058646 (2022)

Assays:
[1] = target: 5-hydroxytryptamine receptor 1A (Homo sapiens) (UniProt P08908); details: Compound concentration 10.0 uM
[2] = target: Death-associated protein kinase 1 (Homo sapiens) (UniProt P53355); experiment: DAPK1 SGC Tm panel (DSF); details: Compound concentration 20.0 uM
[3] = target: T1, Transcriptional regulator Kaiso (Homo sapiens) (UniProt Q86T24); details: SUD4, Compound concentration 1.0 uM
T1 sequence (whole entry): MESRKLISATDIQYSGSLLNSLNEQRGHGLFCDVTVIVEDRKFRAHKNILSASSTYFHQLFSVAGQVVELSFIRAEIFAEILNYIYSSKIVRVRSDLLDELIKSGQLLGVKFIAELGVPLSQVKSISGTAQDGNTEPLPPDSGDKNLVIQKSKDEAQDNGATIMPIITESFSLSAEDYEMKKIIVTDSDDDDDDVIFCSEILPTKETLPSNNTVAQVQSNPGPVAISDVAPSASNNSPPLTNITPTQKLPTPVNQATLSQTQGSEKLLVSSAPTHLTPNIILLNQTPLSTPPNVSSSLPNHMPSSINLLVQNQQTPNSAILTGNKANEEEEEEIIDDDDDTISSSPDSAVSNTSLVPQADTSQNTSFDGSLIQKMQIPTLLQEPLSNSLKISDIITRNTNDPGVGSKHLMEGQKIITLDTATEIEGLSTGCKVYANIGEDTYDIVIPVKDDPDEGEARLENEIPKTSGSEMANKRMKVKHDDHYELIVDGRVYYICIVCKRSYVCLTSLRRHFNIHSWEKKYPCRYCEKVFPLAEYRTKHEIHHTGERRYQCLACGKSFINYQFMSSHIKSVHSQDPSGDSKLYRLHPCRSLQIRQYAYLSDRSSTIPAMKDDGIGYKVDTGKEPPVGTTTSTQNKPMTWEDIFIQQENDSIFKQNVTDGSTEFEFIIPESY

[4] = target: Zinc finger and BTB domain-containing protein 7A (Homo sapiens) (UniProt O95365); details: SUD4, Compound concentration 1.0 uM
Chain of Zinc finger and BTB domain-containing protein 7A (Homo sapiens) (O95365 whole entry, the tested form may be a part): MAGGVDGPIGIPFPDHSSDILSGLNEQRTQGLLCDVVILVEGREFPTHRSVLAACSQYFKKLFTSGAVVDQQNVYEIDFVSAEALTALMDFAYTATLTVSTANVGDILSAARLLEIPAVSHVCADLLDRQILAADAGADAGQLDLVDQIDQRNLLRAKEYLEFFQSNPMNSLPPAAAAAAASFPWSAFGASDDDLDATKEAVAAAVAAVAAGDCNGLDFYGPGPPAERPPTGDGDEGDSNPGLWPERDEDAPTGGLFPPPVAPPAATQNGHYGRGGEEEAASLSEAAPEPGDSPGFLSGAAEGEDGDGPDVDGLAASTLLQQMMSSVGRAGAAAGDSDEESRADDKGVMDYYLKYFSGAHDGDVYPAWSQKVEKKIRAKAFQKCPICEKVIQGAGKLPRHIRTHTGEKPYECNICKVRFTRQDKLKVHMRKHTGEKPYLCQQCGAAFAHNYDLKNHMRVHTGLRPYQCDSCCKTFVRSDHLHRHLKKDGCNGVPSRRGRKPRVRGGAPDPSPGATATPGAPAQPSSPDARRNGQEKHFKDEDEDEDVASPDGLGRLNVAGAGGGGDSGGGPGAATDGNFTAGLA

[5] = target: MAP/microtubule affinity-regulating kinase 3 (Homo sapiens) (UniProt P27448); experiment: MARK3 SGC Tm panel (DSF); details: Compound concentration 20.0 uM
Chain of MAP/microtubule affinity-regulating kinase 3 (Homo sapiens) (P27448 whole entry, looked up): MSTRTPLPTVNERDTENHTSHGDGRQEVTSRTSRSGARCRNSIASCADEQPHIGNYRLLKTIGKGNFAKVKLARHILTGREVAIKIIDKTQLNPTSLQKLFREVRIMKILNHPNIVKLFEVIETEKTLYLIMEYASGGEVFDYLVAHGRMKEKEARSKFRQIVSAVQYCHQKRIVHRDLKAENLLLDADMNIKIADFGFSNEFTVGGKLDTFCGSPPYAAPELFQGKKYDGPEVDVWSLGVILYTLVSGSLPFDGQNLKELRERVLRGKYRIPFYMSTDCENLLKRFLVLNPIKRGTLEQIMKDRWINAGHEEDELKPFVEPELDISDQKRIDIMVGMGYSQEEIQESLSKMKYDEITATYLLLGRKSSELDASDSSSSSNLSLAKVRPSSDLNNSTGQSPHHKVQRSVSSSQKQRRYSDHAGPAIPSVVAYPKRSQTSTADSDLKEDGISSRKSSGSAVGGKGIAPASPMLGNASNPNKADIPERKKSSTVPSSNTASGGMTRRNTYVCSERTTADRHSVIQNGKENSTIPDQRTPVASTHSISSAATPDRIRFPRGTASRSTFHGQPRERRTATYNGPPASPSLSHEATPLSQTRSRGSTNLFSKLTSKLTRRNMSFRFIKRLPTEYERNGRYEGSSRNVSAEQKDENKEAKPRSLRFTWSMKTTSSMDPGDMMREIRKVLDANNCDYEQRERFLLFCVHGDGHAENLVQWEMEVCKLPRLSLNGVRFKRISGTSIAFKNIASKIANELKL

[6] = target: Alpha-1D adrenergic receptor (Homo sapiens) (UniProt P25100); details: Compound concentration 10.0 uM
[7] = target: Serine/threonine-protein kinase Nek2 (Homo sapiens) (UniProt P51955); experiment: NEK2 SGC Tm panel (DSF); details: Compound concentration 20.0 uM
Chain of Serine/threonine-protein kinase Nek2 (Homo sapiens) (P51955 whole entry): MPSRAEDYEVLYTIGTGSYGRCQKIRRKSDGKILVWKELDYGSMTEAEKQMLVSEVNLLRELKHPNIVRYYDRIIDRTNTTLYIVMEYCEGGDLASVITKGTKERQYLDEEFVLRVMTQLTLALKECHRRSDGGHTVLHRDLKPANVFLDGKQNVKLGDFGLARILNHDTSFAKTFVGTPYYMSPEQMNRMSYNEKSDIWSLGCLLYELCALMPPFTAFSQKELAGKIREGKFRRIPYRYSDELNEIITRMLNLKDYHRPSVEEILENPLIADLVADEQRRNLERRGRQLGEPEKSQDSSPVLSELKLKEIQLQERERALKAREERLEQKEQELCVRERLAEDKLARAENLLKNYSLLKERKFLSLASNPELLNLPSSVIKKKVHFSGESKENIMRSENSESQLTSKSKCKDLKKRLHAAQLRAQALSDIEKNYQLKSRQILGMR

[8] = target: T2, Zinc finger protein 131 (Homo sapiens) (UniProt P52739); details: SUD4, Compound concentration 1.0 uM
T2 sequence (whole entry): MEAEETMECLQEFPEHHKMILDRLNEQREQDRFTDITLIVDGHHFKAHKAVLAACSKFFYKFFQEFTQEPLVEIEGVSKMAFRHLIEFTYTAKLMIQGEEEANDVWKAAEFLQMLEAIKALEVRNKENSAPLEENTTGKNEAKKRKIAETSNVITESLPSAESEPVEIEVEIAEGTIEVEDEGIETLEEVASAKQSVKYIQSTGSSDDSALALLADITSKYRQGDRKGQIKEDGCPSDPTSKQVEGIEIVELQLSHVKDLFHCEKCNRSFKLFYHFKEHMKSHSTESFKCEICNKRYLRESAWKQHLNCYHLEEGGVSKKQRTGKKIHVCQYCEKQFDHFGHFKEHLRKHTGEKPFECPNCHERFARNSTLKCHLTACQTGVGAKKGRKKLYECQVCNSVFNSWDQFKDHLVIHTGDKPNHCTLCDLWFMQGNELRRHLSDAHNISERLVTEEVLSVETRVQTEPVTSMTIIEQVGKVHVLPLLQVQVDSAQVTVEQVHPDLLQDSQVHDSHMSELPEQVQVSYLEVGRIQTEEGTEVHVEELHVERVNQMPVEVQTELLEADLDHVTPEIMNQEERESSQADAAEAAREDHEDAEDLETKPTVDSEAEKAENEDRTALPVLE

[9] = target: 5-hydroxytryptamine receptor 2A (Homo sapiens) (UniProt P28223); details: Compound concentration 10.0 uM
Chain of 5-hydroxytryptamine receptor 2A (Homo sapiens) (P28223 whole entry): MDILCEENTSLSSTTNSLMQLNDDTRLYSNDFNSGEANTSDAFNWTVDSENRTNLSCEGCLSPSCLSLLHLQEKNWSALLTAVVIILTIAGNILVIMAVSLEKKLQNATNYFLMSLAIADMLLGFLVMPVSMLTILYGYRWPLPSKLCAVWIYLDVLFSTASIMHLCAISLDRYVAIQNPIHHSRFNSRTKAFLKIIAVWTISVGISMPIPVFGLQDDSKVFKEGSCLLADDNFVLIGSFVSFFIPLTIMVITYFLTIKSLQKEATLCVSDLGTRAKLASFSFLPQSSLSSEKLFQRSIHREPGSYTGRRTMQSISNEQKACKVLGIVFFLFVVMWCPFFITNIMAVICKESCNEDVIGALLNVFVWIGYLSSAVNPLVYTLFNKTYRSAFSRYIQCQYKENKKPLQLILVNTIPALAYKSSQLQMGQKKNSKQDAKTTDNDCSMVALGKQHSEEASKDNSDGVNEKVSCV

[10] = target: Dual specificity protein kinase CLK3 (Homo sapiens) (UniProt P49761); experiment: CLK3 SGC Tm panel (DSF); details: Compound concentration 20.0 uM
[11] = target: Beta-1 adrenergic receptor (Homo sapiens) (UniProt P08588); details: Compound concentration 10.0 uM
Chain of Beta-1 adrenergic receptor (Homo sapiens) (P08588 whole entry, looked up): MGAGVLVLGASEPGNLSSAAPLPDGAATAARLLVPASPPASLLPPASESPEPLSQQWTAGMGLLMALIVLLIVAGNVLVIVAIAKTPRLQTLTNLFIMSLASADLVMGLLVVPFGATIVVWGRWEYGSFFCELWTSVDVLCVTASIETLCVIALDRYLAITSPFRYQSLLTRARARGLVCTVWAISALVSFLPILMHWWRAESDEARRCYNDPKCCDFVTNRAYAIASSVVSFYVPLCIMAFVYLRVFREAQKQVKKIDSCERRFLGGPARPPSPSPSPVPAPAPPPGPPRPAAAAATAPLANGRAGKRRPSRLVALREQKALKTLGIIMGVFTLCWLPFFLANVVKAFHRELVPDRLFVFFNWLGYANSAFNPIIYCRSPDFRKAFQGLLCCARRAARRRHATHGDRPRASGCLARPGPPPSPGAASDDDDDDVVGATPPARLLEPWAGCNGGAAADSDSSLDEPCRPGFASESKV

[12] = target: Sigma intracellular receptor 2 (Homo sapiens, UniProt Q5BJF2); experiment: GPCRScan assay: inhibition of Sigma 2; design: radioligand conc. used [nm] 5.0, parental cells HEKT
Chain of Sigma intracellular receptor 2 (Q5BJF2 whole entry): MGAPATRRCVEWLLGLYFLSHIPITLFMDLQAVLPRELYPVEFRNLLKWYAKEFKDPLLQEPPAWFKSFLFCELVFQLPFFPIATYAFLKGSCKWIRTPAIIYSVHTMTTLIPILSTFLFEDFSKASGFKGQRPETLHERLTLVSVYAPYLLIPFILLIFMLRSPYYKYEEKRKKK

[13] = target: Beta-3 adrenergic receptor (Homo sapiens, UniProt P13945); details: Compound concentration 10.0 uM
[14] = target: Mitogen-activated protein kinase 10 (Homo sapiens) (UniProt P53779); experiment: MAPK10 SGC Tm panel (DSF); details: Compound concentration 20.0 uM
[15] = target: T3, Zinc finger and BTB domain-containing protein 2 (Homo sapiens) (UniProt Q8N680); details: SUD4, Compound concentration 1.0 uM
T3 sequence (whole entry): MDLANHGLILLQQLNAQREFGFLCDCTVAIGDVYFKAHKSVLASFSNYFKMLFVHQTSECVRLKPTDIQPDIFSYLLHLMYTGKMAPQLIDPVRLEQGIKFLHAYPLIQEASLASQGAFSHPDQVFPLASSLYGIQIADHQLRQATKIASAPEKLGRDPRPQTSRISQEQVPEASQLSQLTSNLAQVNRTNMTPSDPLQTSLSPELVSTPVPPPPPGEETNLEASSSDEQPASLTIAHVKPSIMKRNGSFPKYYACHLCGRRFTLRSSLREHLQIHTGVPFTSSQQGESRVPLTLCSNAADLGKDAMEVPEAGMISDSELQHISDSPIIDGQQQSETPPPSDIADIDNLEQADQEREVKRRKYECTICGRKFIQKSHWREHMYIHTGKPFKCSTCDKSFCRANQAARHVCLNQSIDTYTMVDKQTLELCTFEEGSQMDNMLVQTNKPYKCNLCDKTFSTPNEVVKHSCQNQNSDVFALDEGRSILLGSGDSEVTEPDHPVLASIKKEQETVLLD

Chain of Death-associated protein kinase 1 (Homo sapiens) (P53355 whole entry, looked up): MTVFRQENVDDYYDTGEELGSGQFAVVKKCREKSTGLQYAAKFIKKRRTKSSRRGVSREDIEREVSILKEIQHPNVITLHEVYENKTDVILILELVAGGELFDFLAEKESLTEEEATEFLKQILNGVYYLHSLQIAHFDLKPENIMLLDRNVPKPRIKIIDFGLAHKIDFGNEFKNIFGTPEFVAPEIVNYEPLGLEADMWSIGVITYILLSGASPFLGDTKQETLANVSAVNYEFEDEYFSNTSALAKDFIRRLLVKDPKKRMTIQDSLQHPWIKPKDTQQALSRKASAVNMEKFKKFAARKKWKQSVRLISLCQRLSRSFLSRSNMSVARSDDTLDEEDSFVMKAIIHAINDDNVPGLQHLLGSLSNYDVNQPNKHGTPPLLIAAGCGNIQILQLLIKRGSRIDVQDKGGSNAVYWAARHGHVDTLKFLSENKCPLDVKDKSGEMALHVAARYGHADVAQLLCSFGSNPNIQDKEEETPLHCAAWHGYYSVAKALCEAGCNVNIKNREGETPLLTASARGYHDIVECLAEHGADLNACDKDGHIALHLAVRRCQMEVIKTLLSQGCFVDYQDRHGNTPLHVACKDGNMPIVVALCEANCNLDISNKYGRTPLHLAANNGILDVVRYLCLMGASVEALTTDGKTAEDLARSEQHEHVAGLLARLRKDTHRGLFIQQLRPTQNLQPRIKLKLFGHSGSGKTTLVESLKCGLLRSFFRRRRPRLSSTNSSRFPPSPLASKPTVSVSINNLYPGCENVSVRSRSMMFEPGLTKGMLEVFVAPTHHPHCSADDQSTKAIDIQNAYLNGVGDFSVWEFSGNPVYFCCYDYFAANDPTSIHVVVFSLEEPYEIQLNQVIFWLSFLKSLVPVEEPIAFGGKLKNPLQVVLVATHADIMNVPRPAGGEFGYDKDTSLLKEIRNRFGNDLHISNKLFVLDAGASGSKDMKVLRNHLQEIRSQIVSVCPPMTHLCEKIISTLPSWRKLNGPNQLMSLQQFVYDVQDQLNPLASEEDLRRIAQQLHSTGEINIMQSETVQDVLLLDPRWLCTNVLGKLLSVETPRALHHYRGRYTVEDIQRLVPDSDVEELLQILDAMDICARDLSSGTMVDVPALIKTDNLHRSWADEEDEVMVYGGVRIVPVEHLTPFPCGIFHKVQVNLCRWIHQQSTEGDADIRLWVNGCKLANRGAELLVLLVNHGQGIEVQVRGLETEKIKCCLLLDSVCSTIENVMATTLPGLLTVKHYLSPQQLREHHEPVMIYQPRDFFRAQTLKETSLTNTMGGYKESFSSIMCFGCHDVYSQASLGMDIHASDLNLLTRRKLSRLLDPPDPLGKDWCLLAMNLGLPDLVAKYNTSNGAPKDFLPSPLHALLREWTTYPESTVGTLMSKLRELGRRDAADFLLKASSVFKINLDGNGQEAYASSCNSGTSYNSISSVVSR
Chain of 5-hydroxytryptamine receptor 1A (Homo sapiens) (P08908 whole entry): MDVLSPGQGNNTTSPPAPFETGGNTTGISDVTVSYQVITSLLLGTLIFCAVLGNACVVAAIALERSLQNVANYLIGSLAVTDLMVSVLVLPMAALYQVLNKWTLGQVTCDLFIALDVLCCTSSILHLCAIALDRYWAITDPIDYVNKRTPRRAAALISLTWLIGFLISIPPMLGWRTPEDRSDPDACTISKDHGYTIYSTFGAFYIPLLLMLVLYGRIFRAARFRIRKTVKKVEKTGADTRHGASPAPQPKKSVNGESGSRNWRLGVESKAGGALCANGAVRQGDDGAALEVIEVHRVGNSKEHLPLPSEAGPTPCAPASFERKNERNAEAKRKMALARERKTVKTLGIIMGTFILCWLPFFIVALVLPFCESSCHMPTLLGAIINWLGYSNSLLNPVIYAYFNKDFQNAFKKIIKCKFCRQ

inhibition [1]: 5.99%
LogFC [3]: 0.0744
LogFC [4]: -0.0678
Tm [5]: 35 °C
inhibition [6]: 16%
Tm [7]: 40 °C
LogFC [8]: -0.044
inhibition [9]: 23.6%
Tm [10]: 34 °C
inhibition [11]: -2.67%
Ki [12]: 2500 nM
inhibition [13]: 65.3%
Tm [14]: 48 °C
LogFC [15]: 0.029
Structure (SMILES): C[C@@H]1CN(c2ncc(Cl)c(Nc3ccc4c(c3)n(CCC(C)(C)O)c(=O)n4C)n2)C[C@H](C)C1(F)F
Tm [2]: 53 °C
